This data set in a line: gradient 5% acetonitrile 3 min, to 50% in 2 min, to 85% in 15 min, held 3 min, 100 µL/min. The conditions noted are these: column: Zorbax Extend-C18 2.1 x 50 mm; eluents: water / acetonitrile, 0.1% formic acid. The essentials: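 Mixtures of ~100 pure standards were chromatographed on a Zorbax Extend-C18 column (2.1 × 50 mm, 1.8 μm) at 100 μL/min using water and acetonitrile, each with 0.1% formic acid. Detection used a quadrupole time-of-flight mass spectrometer in positive and negative ionization mode, and data collection spanned 3 months. Retention time was obtained from adduct peaks picked computationally and each checked manually.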
`Cc1ccnc(NS(=O)(=O)c2ccc(NC(=O)c3ccc([N+](=O)[O-])s3)cc2)n1` yielded an RP-LC retention time of 699 s.

Consider `CN(C)S(=O)(=O)c1ccc(C(=O)Nc2nc(-c3coc4ccccc34)cs2)cc1`, for which the RP-LC retention time is 1030 s.

As to `CCn1cc(C(=O)Nc2cc(OC)cc(OC)c2)c(S(=O)(=O)N2CCSCC2)n1`, the RP-LC retention time was 992 s.

For the compound `Cc1ccc(N2CC(C(=O)NCC(C)(O)C3CC3)CC2=O)cc1C` (stereo not drawn), the RP-LC retention time stood at 673 s.

For `COc1ccc(NC(=O)Cn2nc3n(c2=O)CCCC3)cc1Cl`, the RP-LC retention time turned out to be 674 s.

In turn, `Cc1ccc(C(=O)NCCc2nc3cccnc3n2C(C)C)c(C)c1` registered an RP-LC retention time of 695 s.

`Cc1nnc(N2CCCC(C(=O)N3CCN(c4ccccc4)CC3)C2)c2nn(-c3ccccc3)c(C)c12` (stereo not drawn): the RP-LC retention time came to 759 s.

`COCCNC(=O)N1CCN(Cc2nc3cc(C(=O)N(C)C)ccc3o2)CC1` yielded an RP-LC retention time of 559 s.

Consider `CN(CC1CCOC1)C(=O)Nc1cc(F)ccc1F` (stereo not drawn), for which the RP-LC retention time is 704 s.

For `N#Cc1ccc(C(=O)N2CC(n3cc(C(=O)NCC4CC4)nn3)C2)cc1`, the RP-LC retention time was 701 s.

For the compound `Cc1nc(-c2ccc(N3CCN(C(=O)c4ccc(Cl)cc4)CC3)nc2)sc1C`, the RP-LC retention time was determined as 946 s.

In turn, `Cc1cc(NC(=O)C2CCN(S(=O)(=O)c3cn(C)cn3)CC2)ccc1Br` gave an RP-LC retention time of 802 s.

Turning to `COc1ccc(NC(=O)N2CCN(c3cnn4c(C)nnc4c3)CC2)cc1`, the RP-LC retention time stood at 594 s.

The values are drawn from the METLIN SMRT retention time set (Domingo-Almenara et al. 2019).
